Data on 15 compounds can be found in publication PMC9324074, “Novel Insights on Human Carbonic Anhydrase Inhibitors Based on Coumalic Acid: Design, Synthesis, Molecular Modeling Investigation, and Biological Studies” (International Journal of Molecular Sciences, 2022).

Where two headings read alike, the source gives them in different places. Where only a bound is given, the exact number is not on record here.

Common to all, as to experiment: stopped-flow CO2 hydrase assay
Common to all, as to type: biochemical

The target of one assay is T1, hCA II (Homo sapiens, UniProt P00918).
T1 construct: gene CA2; recombinant, obtained in house
Conditions: read-out: KI (μM) ^a / hCA I. The text has this: stopped-flow CO2 hydrase assay on hCA II

The target in a further assay is T2, hCA I (Homo sapiens, UniProt P00915).
T2 construct: gene CA1; recombinant, obtained in house
T2 sequence (P00915 2-261): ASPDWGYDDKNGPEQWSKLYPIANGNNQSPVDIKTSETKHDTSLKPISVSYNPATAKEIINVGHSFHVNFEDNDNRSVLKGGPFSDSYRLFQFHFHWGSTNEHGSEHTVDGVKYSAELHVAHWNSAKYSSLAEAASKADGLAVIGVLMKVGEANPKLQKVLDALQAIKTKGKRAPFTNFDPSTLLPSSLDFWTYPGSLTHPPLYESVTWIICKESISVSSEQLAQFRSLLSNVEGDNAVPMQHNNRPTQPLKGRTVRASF
The text has this:
stopped-flow CO2 hydrase assay on hCA I

A further assay addresses T3, hCA XII (Homo sapiens, UniProt O43570).
T3 construct: gene CA12; recombinant, obtained in house
The text has this: stopped-flow CO2 hydrase assay on hCA XII

For a further assay, the target named is T4, hCA IX (Homo sapiens, UniProt Q16790).
T4 construct: gene CA9; recombinant, obtained in house
The text has this:
stopped-flow CO2 hydrase assay on hCA IX

Where [1] appears, read: pH […] ([…] Hepes), […] Na2SO4, […] min preincubation at room temperature.

T3 sequence (O43570 30-289 limits assumed): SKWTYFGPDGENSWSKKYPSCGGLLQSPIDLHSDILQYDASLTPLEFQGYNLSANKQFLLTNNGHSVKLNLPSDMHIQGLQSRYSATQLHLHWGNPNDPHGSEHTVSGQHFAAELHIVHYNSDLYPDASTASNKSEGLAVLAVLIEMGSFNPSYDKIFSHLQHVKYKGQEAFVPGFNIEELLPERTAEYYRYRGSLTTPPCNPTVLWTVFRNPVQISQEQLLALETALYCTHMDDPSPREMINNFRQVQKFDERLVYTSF

Take `O=C(O)c1ccc(=O)oc1` [compound 1, coumalic acid]: the Ki is > 100 µM on hCA II, > 100 µM at hCA I, 0.083 µM on hCA XII and 0.073 µM at hCA IX.

Consider `O=C(Nc1ccccc1)c1ccc(=O)oc1` [compound 2, 2-Oxo-N-phenyl-2H-pyran-5-carboxamide], for which the Ki is > 100 µM at hCA II, > 100 µM at hCA I, 0.7 µM on hCA XII and 3 µM at hCA IX.

Consider `Cc1ccc(NC(=O)c2ccc(=O)oc2)cc1` [compound 3, 2-Oxo-N-(p-tolyl)-2H-pyran-5-carboxamide], for which the Ki was > 100 µM on hCA II, > 100 µM at hCA I, 0.8 µM at hCA XII and 2.9 µM on hCA IX.

On to `Cc1cccc(NC(=O)c2ccc(=O)oc2)c1` [compound 4, 2-Oxo-N-(m-tolyl)-2H-pyran-5-carboxamide], for which the Ki was > 100 µM on hCA II, > 100 µM at hCA I, 0.09 µM on hCA XII and 0.174 µM at hCA IX.

For `CC(C)c1ccc(NC(=O)c2ccc(=O)oc2)cc1` [compound 5, N-(4-Isopropylphenyl)-2-oxo-2H-pyran-5-carboxamide], the Ki on hCA II is > 100 µM; on hCA I, > 100 µM; at hCA XII, 0.068 µM; at hCA IX, 0.273 µM.

`COc1ccc(NC(=O)c2ccc(=O)oc2)cc1` [compound 6, N-(4-Methoxyphenyl)-2-oxo-2H-pyran-5-carboxamide]: the Ki on hCA II is > 100 µM; at hCA I it was > 100 µM; at hCA XII it was 0.7 µM; at hCA IX, 3.1 µM.

For the compound `COc1cccc(NC(=O)c2ccc(=O)oc2)c1` [compound 7, N-(3-Methoxyphenyl)-2-oxo-2H-pyran-5-carboxamide], the Ki was > 100 µM at hCA II, > 100 µM at hCA I, 0.265 µM at hCA XII and 0.315 µM on hCA IX.

With `O=C(Nc1ccc(Cl)cc1)c1ccc(=O)oc1` [compound 8, N-(4-Chlorophenyl)-2-oxo-2H-pyran-5-carboxamide], the Ki on hCA II was > 100 µM; at hCA I it was > 100 µM; on hCA XII, 0.7 µM; at hCA IX it was 3.2 µM.

For `O=C(Nc1ccc(Br)cc1)c1ccc(=O)oc1` [compound 9, N-(4-Bromophenyl)-2-oxo-2H-pyran-5-carboxamide], the Ki was > 100 µM at hCA II, > 100 µM on hCA I, 0.089 µM on hCA XII and 0.082 µM on hCA IX.

As for `O=C(Nc1ccccc1I)c1ccc(=O)oc1` [compound 10, N-(2-Iodophenyl)-2-oxo-2H-pyran-5-carboxamide], the Ki was > 100 µM on hCA II, > 100 µM on hCA I, 0.081 µM at hCA XII and 0.281 µM at hCA IX.

Consider `O=C(Nc1ccc(-c2ccccc2)cc1)c1ccc(=O)oc1` [compound 11, N-([1,1′-Biphenyl]-4-yl)-2-oxo-2H-pyran-5-carboxamide], for which the Ki is > 100 µM on hCA II, > 100 µM at hCA I, 0.076 µM at hCA XII and 0.083 µM on hCA IX.

Turning to `O=C(Nc1ccccc1Cc1ccccc1)c1ccc(=O)oc1` [compound 12, N-(2-Benzylphenyl)-2-oxo-2H-pyran-5-carboxamide], the Ki is > 100 µM on hCA II, > 100 µM at hCA I, 0.08 µM at hCA XII and 0.146 µM on hCA IX.

On to `O=C(Nc1cccc2ccccc12)c1ccc(=O)oc1` [compound 13, N-(Naphthalen-1-yl)-2-oxo-2H-pyran-5-carboxamide], for which the Ki on hCA II is > 100 µM; at hCA I it was > 100 µM; on hCA XII, 0.094 µM; on hCA IX it was 3.69 µM.

With `O=C(NC1CCCCC1)c1ccc(=O)oc1` [compound 14, N-Cyclohexyl-2-oxo-2H-pyran-5-carboxamide], the Ki was > 100 µM at hCA II, > 100 µM on hCA I, 0.086 µM on hCA XII and 0.098 µM on hCA IX.

“N-(3-Morpholinopropyl)-2-oxo-2H-pyran-5-carboxamide [compound 15]”: the Ki on hCA II (setting [1]) is > 100 µM; on hCA I (setting [1]), > 100 µM; at hCA XII (setting [1]), 0.087 µM; at hCA IX (setting [1]), 0.326 µM.
